In US20030109549A1 (published 2003):
Structures can show the parent of a compound that is named as a salt.

Row | melting point [°C] | Structure (SMILES)
1 | 153 to 156 | Clc1nc2ccccc2n1C1CCN(C2(c3ccccc3)CCCCCC2)CC1 (as salt: HCl)
2 | 177 to 180 | c1ccc(C2(N3CCC(n4c(N5CCCCC5)nc5ccccc54)CC3)CCCCCC2)cc1 (as salt: HCl)
3 | 139 to 143 | c1ccc(CN2CCN(c3nc4ccccc4n3C3CCN(C4(c5ccccc5)CCCCCC4)CC3)CC2)cc1 (as salt: HCl)
4 | 159 to 163 | c1ccc(C2(N3CCC(n4c(N5CCNCC5)nc5ccccc54)CC3)CCCCCC2)cc1 (as salt: HCl)
5 | 156 to 159 | CCCCCNc1nc2ccccc2n1C1CCN(C2(c3ccccc3)CCCCCC2)CC1 (as salt: HCl)
6 | 228 to 232 | NCCNc1nc2ccccc2n1C1CCN(C2(c3ccccc3)CCCCCC2)CC1 (as salt: HCl)
7 | 231 to 235 | c1ccc(C2(N3CCC(n4c(NC5CCNCC5)nc5ccccc54)CC3)CCCCCC2)cc1 (as salt: HCl)
8 | 173 to 177 | CNC(C)Nc1nc2ccccc2n1C1CCN(C2(c3ccccc3)CCCCCC2)CC1 (stereo not shown) (as salt: HCl)
9 | 188 to 192 | CN(C)CCNc1nc2ccccc2n1C1CCN(C2(c3ccccc3)CCCCCC2)CC1 (as salt: HCl)
10 | 188 to 192 | c1ccc(N2CCN(c3nc4ccccc4n3C3CCN(C4(c5ccccc5)CCCCCC4)CC3)CC2)cc1 (as salt: HCl)
11 | 155 to 158 | CS(=O)(=O)c1nc2ccccc2n1C1CCN(C2(c3ccccc3)CCCCCC2)CC1 (as salt: HCl)
12 | 168 to 172 | O=C1CCN(c2nc3ccccc3n2C2CCN(C3(c4ccccc4)CCCCCC3)CC2)CC1 (as salt: HCl)
13 | 208 to 212 | OC1CCN(c2nc3ccccc3n2C2CCN(C3(c4ccccc4)CCCCCC3)CC2)CC1 (as salt: HCl)
14 | 225 to 228 | NC1CCN(c2nc3ccccc3n2C2CCN(C3(c4ccccc4)CCCCCC3)CC2)CC1 (as salt: HCl)
15 | 114 to 118 | c1ccc(C2(N3CCC(n4c(OC5CCNCC5)nc5ccccc54)CC3)CCCCCC2)cc1 (as salt: HCl)
16 | 168 to 171 | CSc1nc2ccccc2n1C1CCN(C2(c3ccccc3)CCCCCC2)CC1 (as salt: HCl)
17 | 180 to 184 | NCCOc1nc2ccccc2n1C1CCN(C2(c3ccccc3)CCCCCC2)CC1 (as salt: HCl)
18 | 178 to 181 | c1ccc(C2(N3CCC(n4c(N5CCCC5)nc5ccccc54)CC3)CCCCCC2)cc1 (as salt: HCl)
19 | 217 to 221 | NCC(=O)Nc1nc2ccccc2n1C1CCN(C2(c3ccccc3)CCCCCCC2)CC1 (as salt: HCl)
20 | 172 to 176 | c1ccc(C2(N3CCC(n4c(N5CCOCC5)nc5ccccc54)CC3)CCCCCC2)cc1 (as salt: HCl)
21 | 201 to 204 | ON=C1CCN(c2nc3ccccc3n2C2CCN(C3(c4ccccc4)CCCCCC3)CC2)CC1 (as salt: fumaric acid salt)
22 | 215 to 218 | N=C(N)NCCNc1nc2ccccc2n1C1CCN(C2(c3ccccc3)CCCCCC2)CC1 (as salt: salt)
